Entries after “also recorded” stand apart in the source; their conditions may differ.
How the values were obtained:
[1] = test system: PKCζ; assay: PKCζ translocation in ETFR cells (confocal microscopy); assay type: cell-based, rat; conditions: 100 nM fMLF, 10 μg/ml CaG or PMA 500 nM, 37° C. 10 min
Protocol: (§1) ETFR cells were seeded on coverslips and cultured overnight in DMEM containing 1% FCS at 37° C. After further culture in FCS-free DMEM for 3 h, cells were treated with stimulants for indicated time periods at 37° C. and were then fixed in 4% paraformaldehyde for 5 min at room temperature. The cells were permeabilized with 0.2% Tween 20 for 30 min at 4° C. and the reaction was blocked with 5% goat normal serum for 15 min at room temperature. The rabbit anti-PKCα/β, δ, and ξ, antibodies (1:1000 in DPBS) were applied separately for 1 h at room temperature. After three rinses with DPBS, the cells were stained with FITC-labeled goat anti-rabbit secondary antibody (PharMingen, 1:1000 in DPBS) for 1 h at room temperature. The coverslips were mounted with an anti-fade, water-based mounting medium with Propidium Iodide (PI) (Vector Lab, Burlingamem, Calif.) and analyzed under a laser scanning confocal fluorescence microscope (Zeiss LSM510 NLO Meta, Jena, Germany). Excitation wavelengths 488 (for FITC) and 568 (for PI) nm were used to generate fluorescence emission in green and red, respectively.

[2] = test system: parental RBL cells; assay: 125I-CaG binding to parental RBL cells; set-up: species or system rat; conditions: 25 nM 125I-CaG
Protocol: CaG was iodinated with a chrolamine-T method (Lofstrand Labs, Gaithersburg, Md.) with a specific activity of […] protein. Duplicate samples of ETFR cells or the parental RBL cells (2×10^6 cells in 200 μl RPMI 1640 containing 1% bovine serum albumin, 25 mM Hepes, and 0.05% NaN3) were incubated with 25 nM ^125I-CaG, in the presence of increasing concentrations of unlabeled ligands. After incubation and rotation at room temperature for 1 h, the cells were pelleted through a 10% sucrose/PBS cushion for 1 min at 10,000 g. The supernatant was removed and the radioactivity associated with cell pellets was measured in a γ counter (CliniGamma, Pharmacia Biotech Inc.). The binding data were analyzed with a Macintosh computer-aided program LIGAND (Dr. P. Munson, Division of Computer Research and Technology, NIH, Bethesda, Md.).

[3] = test system: CHI-39; assay: Chemotaxis of HEK293 cells transfected with chimeric receptor CHI-39; assay type: cell-based, human; conditions: N-terminus of FPR replaced by FPRL1 sequences
Protocol: Human PBMC were isolated from leukopacks obtained through the courtesy of Transfusion Medicine Department, National Institutes of Health Clinical Center (Bethesda, Md.) by Ficoll-Hypaque density gradient centrifugation. Monocytes were purified from human PBMC by Percoll gradient to yield>90% pure preparations. […] H. Ali and R. Snyderman, Duke University (Durham, N.C.) and maintained in the presence of 0.8 mg/ml geneticin (G418, Life Technologies, Rockville, Md.) in DMEM supplemented with 10% FCS. B. Chemotaxis assay Migration of phagocytes and ETFR cells was assessed using a 48-well microchemotaxis chamber (Neuroprobe, Cabin John, Md.) as previously described (Hu et al. (2001) J Leukoc Biol 70 15512). […] After incubation at 37° C. in humidified air with 5% CO2 (60 min for neutrophils, 90 min for monocytes, 4.5 h for ETFR cells), the filter was removed and stained, and the cells migrating across the filter were counted with light microscopy. […]
The chimeric receptor was stably transfected into HEK293 cells (a human embryo kidney cell line) and the chemotactic activity of CaG on the transfected cells was measured and compared to the chemotactic activity of CaG on […] cells transfected with wild type FPR, using the assay for chemotaxis described in Example IB. […]

[4] = test system: neutrophils; assay: Calcium flux (Fura-2), neutrophils; assay type: cell-based, human
[5] = test system: PKCα/β; assay: PKCα/β translocation in ETFR cells; assay type: cell-based, rat; conditions: 100 nM fMLF, 10 μg/ml CaG or PMA 500 nM, 37° C. 10 min
Protocol: as §1

[6] = test system: ERK1/2; assay: Phosphorylation of ERK1/2 in parental RBL cells; assay type: cell-based, rat
[7] = test system: p38 MAPK; assay: Phosphorylation of p38 MAPK in ETFR cells (Western blot); assay type: cell-based, rat
Protocol: ETFR cells were plated in Petri dishes and cultured in DMEM at 37° C. in humidified 5% CO2 atmosphere for 48 h. After further culture in serum-free DMEM overnight, the cells were treated with stimulants for indicated time periods. The reaction was stopped by adding 1 ml ice-cold PBS, and the cells were lysed in 1×SDS lysis buffer (62.5 mM Tris-HCl, 2% w/v SDS, 10% glycerol, 50 mM DTT, pH 6.8) and harvested into tubes for sonication. Proteins (50 μg for each sample) were resolved by SDS-PAGE and transferred onto nitrocellulose membranes (Bio-Rad, Hercules, Calif.). The membranes were blocked for 2 h at room temperature in 3% non-fat milk prepared in Tris-buffered saline-T (10 mM Tris-HCl, pH 7.5, 150 mM NaCl, 0.1% Tween 20) and probed with anti-p-ERK1/2, p-p38 MAPK, or p-Akt (1:1000) at room temperature for 1-2 h or at 4° C. overnight. The membranes were then washed and incubated with horseradish peroxidase-conjugated secondary antibodies diluted in Tris-buffered saline-T for 1 h at room temperature. The immune complexes on the membranes were visualized using ECL reagents. Total ERK1/2, p38 MAPK, and Akt were visualized by stripping the same membrane and probing with antibodies against total ERK1/2, p38 MAPK, and Akt.

CaG: Cathepsin G, serine protease purified from neutrophil granules, purchased from Athens Research & Technology
translocation of PKCζ [1]: a substantial proportion of PKCξ translocated to the cell membrane region | specific binding of 125I-CaG to parental RBL cells [2]: no measurable levels of specific binding | chemotactic activity on CHI-39-transfected HEK293 cells [3]: exhibit robust migration in response to CaG | Ca2+ flux ([4]; CaG 10 μg/ml): failed to induce significant Ca^2+ flux | attenuation of Ca2+ response to fMLF ([4]; CaG 10 μg/ml, 0.1 nM fMLF): attenuated cell response induced by low concentrations of fMLF; also recorded: significantly attenuated cell response to 0.1 nM fMLF | Ca2+ mobilizing activity ([4]; concentrations up to 20 μg/ml (800 nM)): lacked significant Ca^2+ mobilizing activity | translocation of PKCα/β [5]: did not induce translocation of PKCα and β | phosphorylation of ERK1/2 in parental RBL cells [6]: did not show any increased phosphorylation of ERK1/2 | time to activation of p38 MAPK [7]: 1 to 5 min
